Measurements as given in PubChem BioAssay (NCI).
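Each compound was tested at five concentrations against cells in 96-well plates for 48 hours. Here, GI50 denotes the concentration required for 50% inhibition of growth. TGI denotes the concentration required for complete inhibition of growth.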

Columns and labels:
Assay in all cases: NCI anticancer screen, dose series, 48 h
[1] = test system: 786-0 renal
[2] = test system: A498 renal
[3] = test system: A549 NSCLC
[4] = test system: ACHN renal
[5] = test system: BT-549 breast
[6] = test system: CAKI-1 renal
[7] = test system: CCRF-CEM leukemia
[8] = test system: COLO 205 colon
[9] = test system: DU-145 prostate
[10] = test system: EKVX NSCLC
[11] = test system: HCC-2998 colon
[12] = test system: HCT-116 colon
[13] = test system: HCT-15 colon
[14] = test system: HL-60(TB) leukemia
[15] = test system: HOP-62 NSCLC
[16] = test system: HOP-92 NSCLC
[17] = test system: HS 578T breast
[18] = test system: HT29 colon
[19] = test system: IGROV1 ovarian
[20] = test system: K-562 leukemia
[21] = test system: KM12 colon
[22] = test system: LOX IMVI melanoma
[23] = test system: M14 melanoma
[24] = test system: MALME-3M melanoma
[25] = test system: MCF7 breast
[26] = test system: MDA-MB-231 breast
[27] = test system: MDA-MB-435
[28] = test system: MDA-MB-468 breast
[29] = test system: MOLT-4 leukemia
[30] = test system: NCI-H226 lung
[31] = test system: NCI-H23 lung
[32] = test system: NCI-H460 lung
[33] = test system: NCI-H522 lung
[34] = test system: NCI/ADR-RES ovarian
[35] = test system: OVCAR-3 ovarian
[36] = test system: OVCAR-4 ovarian
[37] = test system: OVCAR-5 ovarian
[38] = test system: OVCAR-8 ovarian
[39] = test system: PC-3 prostate
[40] = test system: RPMI-8226 leukemia
[41] = test system: RXF 393 renal
[42] = test system: SF-268 CNS
[43] = test system: SF-295 CNS
[44] = test system: SF-539 CNS
[45] = test system: SK-MEL-2 melanoma
[46] = test system: SK-MEL-28 melanoma
[47] = test system: SK-MEL-5 melanoma
[48] = test system: SK-OV-3 ovarian
[49] = test system: SN12C renal
[50] = test system: SNB-19 CNS
[51] = test system: SNB-75 CNS
[52] = test system: SR leukemia
[53] = test system: SW-620 colon
[54] = test system: T-47D breast
[55] = test system: TK-10 renal
[56] = test system: U251 CNS
[57] = test system: UACC-257 melanoma
[58] = test system: UACC-62 melanoma
[59] = test system: UO-31 renal

CN(C)CCOc1ccc(C(=O)C2[C@H](c3ccc(Cl)cc3)[C@@H](c3ccccc3)NC23C(=O)Nc2ccc(Cl)cc23)cc1 (stereo partly drawn) gave a GI50 [1] of 15 µM, a TGI [1] of 29.2 µM and a GI50 [2] of 14.6 µM. The TGI [2] was 28.1 µM, the GI50 [3] was 14.3 µM and the TGI [3] was 28.9 µM. The GI50 [4] was 14.5 µM, the TGI [4] was 27.6 µM and the GI50 [5] was 14.4 µM. For the same compound, the TGI [5] was 27.7 µM, the GI50 [6] was 13.4 µM and the TGI [6] was 26.3 µM. The GI50 [7] was 16.8 µM, the TGI [7] was 34.8 µM and the GI50 [8] was 15.6 µM. For the same compound, the TGI [8] was 29.3 µM, the GI50 [9] was 15.9 µM and the TGI [9] was 30.2 µM. It also gave a GI50 [10] of 14.3 µM, a TGI [10] of 28.1 µM and a GI50 [11] of 13.4 µM. For the same compound, the TGI [11] was 26.9 µM, the GI50 [12] was 12.8 µM and the TGI [12] was 26 µM. It also gave a GI50 [13] of 15.2 µM, a TGI [13] of 28.8 µM and a GI50 [14] of 11 µM. It also gave a TGI [14] of 28.1 µM, a GI50 [15] of 12.7 µM and a TGI [15] of 26 µM. The GI50 [16] was 8.92 µM, the TGI [16] was 22.2 µM and the GI50 [17] was 12.5 µM. The TGI [17] was 34.2 µM, the GI50 [18] was 14.4 µM and the TGI [18] was 28.1 µM. The GI50 [19] was 14.3 µM, the TGI [19] was 28.2 µM and the GI50 [20] was 13 µM. The TGI [20] was 34.2 µM, the GI50 [21] was 13.6 µM and the TGI [21] was 29 µM. It also gave a GI50 [22] of 13.5 µM, a TGI [22] of 26.8 µM and a GI50 [23] of 16 µM. The TGI [23] was 29.8 µM, the GI50 [24] was 14.7 µM and the TGI [24] was 29.7 µM. It also gave a GI50 [25] of 5.71 µM, a TGI [25] of 18.8 µM and a GI50 [26] of 15.1 µM. It also gave a TGI [26] of 28.7 µM, a GI50 [27] of 14.5 µM and a TGI [27] of 28.2 µM. It also gave a GI50 [28] of 8.98 µM, a TGI [28] of 22.3 µM and a GI50 [29] of 12.6 µM. The TGI [29] was 29.6 µM, the GI50 [30] was 15.3 µM and the TGI [30] was 33.1 µM. For the same compound, the GI50 [31] was 16.4 µM, the TGI [31] was 31 µM and the GI50 [32] was 13 µM. The TGI [32] was 26.3 µM, the GI50 [33] was 14.8 µM and the TGI [33] was 29.1 µM. For the same compound, the GI50 [34] was 16.6 µM, the TGI [34] was 31.4 µM and the GI50 [35] was 14.2 µM. The TGI [35] was 29.9 µM, the GI50 [36] was 14.4 µM and the TGI [36] was 29 µM. For the same compound, the GI50 [37] was 14.6 µM, the TGI [37] was 27.8 µM and the GI50 [38] was 16.3 µM. It also gave a TGI [38] of 31.5 µM, a GI50 [39] of 15.5 µM and a TGI [39] of 31.7 µM. For the same compound, the GI50 [40] was 18.6 µM, the TGI [40] was 43.4 µM and the GI50 [41] was 10.8 µM. For the same compound, the TGI [41] was 23.6 µM, the GI50 [42] was 15 µM and the TGI [42] was 33.5 µM. It also gave a GI50 [43] of 16.3 µM, a TGI [43] of 30.5 µM and a GI50 [44] of 14.7 µM. The TGI [44] was 27.8 µM, the GI50 [45] was 15.9 µM and the TGI [45] was 30 µM. It also gave a GI50 [46] of 16.2 µM, a TGI [46] of 29.9 µM and a GI50 [47] of 15.8 µM. For the same compound, the TGI [47] was 29.2 µM, the GI50 [48] was 14.3 µM and the TGI [48] was 27.7 µM. For the same compound, the GI50 [49] was 13.5 µM, the TGI [49] was 26.7 µM and the GI50 [50] was 15.6 µM. It also gave a TGI [50] of 29.2 µM, a GI50 [51] of 10.4 µM and a TGI [51] of 24.7 µM. For the same compound, the GI50 [52] was 13.7 µM, the TGI [52] was 29.7 µM and the GI50 [53] was 12.3 µM. The TGI [53] was 25.3 µM, the GI50 [54] was 14.6 µM and the TGI [54] was 30 µM. The GI50 [55] was 14 µM, the TGI [55] was 27.3 µM and the GI50 [56] was 15.3 µM. For the same compound, the TGI [56] was 29.3 µM, the GI50 [57] was 15.7 µM and the TGI [57] was 30.6 µM. It also gave a GI50 [58] of 15.1 µM, a TGI [58] of 28.7 µM and a GI50 [59] of 12.8 µM. It also gave a TGI [59] of 25.5 µM.
